Results taken from ChEMBL document CHEMBL1201862, “PubChem BioAssay data set” (2004).
Activity calls are given as the source filed them.

What was measured:
Prothrombin = Prothrombin (Homo sapiens, UniProt P00734); assay: Thrombin 1536 HTS Dose Response Confirmation. [Related pubchem assays: 1046 (Thrombin 1536 HTS; hits were confirmed in this assay)]; type: functional
[1] = biological target: T1, Voltage-dependent T-type calcium channel subunit alpha-1H (Homo sapiens, UniProt O95180); type: functional
T1 sequence (O95180 whole entry): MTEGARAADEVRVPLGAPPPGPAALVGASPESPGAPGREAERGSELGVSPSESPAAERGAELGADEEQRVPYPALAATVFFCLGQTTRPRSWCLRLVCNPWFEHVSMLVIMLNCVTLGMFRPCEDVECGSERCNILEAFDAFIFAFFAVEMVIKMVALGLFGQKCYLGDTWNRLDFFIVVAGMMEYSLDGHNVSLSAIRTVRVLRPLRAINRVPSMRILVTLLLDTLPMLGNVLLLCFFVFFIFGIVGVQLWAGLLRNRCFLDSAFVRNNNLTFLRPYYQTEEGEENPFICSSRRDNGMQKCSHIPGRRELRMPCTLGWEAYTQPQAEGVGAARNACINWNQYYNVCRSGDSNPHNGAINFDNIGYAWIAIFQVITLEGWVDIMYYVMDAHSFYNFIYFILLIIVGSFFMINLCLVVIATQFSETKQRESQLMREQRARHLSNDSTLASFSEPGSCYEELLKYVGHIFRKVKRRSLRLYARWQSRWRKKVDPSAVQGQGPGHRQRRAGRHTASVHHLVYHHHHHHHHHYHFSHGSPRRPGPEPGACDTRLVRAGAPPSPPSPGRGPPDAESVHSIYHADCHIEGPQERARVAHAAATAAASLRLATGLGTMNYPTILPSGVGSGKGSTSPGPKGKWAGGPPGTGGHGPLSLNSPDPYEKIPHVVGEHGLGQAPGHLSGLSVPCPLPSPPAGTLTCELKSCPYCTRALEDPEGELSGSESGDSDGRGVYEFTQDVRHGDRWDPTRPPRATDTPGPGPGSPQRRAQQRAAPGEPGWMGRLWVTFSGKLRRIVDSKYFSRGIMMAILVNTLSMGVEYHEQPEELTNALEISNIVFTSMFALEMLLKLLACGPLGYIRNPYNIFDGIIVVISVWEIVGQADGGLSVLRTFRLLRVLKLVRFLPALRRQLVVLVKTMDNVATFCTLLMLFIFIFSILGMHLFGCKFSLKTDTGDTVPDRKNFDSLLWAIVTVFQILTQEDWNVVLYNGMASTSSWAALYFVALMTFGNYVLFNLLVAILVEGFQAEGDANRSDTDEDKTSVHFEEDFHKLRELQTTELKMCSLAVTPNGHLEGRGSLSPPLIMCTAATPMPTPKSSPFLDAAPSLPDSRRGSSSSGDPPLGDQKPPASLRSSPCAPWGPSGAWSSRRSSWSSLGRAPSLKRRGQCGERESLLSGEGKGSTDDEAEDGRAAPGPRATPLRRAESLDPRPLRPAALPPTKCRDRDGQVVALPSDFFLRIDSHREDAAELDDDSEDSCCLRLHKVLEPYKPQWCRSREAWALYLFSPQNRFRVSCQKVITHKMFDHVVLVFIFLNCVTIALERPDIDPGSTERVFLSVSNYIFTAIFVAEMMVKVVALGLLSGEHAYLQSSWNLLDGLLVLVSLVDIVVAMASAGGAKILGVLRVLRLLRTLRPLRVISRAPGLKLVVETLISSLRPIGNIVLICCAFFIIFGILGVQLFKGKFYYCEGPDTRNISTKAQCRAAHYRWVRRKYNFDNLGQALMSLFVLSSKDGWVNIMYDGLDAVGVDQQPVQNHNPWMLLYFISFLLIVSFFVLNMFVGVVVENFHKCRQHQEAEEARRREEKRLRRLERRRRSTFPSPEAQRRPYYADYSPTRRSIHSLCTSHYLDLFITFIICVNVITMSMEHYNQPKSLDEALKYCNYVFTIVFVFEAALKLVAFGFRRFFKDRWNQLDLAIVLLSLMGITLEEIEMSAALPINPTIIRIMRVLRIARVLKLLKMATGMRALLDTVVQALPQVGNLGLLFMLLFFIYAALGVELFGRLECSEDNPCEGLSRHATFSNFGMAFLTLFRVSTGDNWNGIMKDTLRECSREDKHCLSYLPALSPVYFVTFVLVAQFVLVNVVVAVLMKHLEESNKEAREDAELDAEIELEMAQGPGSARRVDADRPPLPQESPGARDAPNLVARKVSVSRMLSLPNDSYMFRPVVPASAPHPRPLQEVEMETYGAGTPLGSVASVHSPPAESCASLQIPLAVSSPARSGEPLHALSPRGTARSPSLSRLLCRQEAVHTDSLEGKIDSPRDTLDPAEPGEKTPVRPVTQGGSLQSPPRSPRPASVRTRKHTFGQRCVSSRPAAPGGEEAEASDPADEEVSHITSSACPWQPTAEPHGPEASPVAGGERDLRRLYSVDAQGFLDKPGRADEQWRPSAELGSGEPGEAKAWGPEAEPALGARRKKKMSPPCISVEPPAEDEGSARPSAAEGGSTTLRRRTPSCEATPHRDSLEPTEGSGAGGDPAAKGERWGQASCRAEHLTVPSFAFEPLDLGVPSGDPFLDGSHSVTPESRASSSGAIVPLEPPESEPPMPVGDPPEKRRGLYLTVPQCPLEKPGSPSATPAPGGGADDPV

[2] = biological target: T2, Short transient receptor potential channel 4 (Mus musculus, UniProt Q9QUQ5); assay: block of DAMGO-driven TRPC4 calcium entry – cell-based, HEK293 TRPC4/mu-opioid, Fluo-4 calcium, dose response (AID 434942); type: functional;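 further: potency of inhibitors blocking the TRPC4 calcium response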
T2 sequence (Q9QUQ5 whole entry): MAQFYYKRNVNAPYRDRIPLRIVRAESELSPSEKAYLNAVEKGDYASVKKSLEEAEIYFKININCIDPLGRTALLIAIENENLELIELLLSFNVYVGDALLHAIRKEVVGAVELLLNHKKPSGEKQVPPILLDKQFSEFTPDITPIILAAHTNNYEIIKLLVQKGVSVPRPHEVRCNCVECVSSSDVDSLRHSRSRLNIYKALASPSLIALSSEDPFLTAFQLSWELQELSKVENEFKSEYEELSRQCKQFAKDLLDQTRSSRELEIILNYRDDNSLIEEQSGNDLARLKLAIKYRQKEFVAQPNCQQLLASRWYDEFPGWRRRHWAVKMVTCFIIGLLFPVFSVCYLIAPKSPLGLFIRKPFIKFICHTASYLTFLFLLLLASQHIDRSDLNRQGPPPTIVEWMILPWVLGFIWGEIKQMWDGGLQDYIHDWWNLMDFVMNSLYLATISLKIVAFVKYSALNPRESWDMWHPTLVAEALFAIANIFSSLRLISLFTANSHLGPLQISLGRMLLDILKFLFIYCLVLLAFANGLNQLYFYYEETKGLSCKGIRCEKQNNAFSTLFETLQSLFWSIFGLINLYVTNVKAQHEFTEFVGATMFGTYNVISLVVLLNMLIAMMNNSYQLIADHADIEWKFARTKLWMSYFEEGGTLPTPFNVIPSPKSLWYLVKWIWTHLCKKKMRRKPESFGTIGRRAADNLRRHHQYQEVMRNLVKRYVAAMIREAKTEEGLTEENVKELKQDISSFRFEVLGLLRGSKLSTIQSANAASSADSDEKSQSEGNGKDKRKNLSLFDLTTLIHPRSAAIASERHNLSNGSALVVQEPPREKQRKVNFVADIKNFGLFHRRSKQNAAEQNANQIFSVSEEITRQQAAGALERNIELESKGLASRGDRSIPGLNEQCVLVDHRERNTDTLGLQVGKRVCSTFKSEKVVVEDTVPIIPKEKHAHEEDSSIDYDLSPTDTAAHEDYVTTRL

[3] = biological target: T1, Voltage-dependent T-type calcium channel subunit alpha-1H; assay: Inhibitors of T-Type Calcium Channels. [Related pubchem assays (depositor defined):AID449739, AID463087, AID489005, AID493041, AID504579, AID504584, AID504619, AID504628]; type: functional
Coagulation factor XII = biological target: T3, Coagulation factor XII (Homo sapiens, UniProt P00748); type: functional;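 further: activated factor XIIa alpha cleaving a fluorogenic AMC peptide substrate; inhibitor potency from loss of enzyme activity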
T3 sequence (P00748 whole entry): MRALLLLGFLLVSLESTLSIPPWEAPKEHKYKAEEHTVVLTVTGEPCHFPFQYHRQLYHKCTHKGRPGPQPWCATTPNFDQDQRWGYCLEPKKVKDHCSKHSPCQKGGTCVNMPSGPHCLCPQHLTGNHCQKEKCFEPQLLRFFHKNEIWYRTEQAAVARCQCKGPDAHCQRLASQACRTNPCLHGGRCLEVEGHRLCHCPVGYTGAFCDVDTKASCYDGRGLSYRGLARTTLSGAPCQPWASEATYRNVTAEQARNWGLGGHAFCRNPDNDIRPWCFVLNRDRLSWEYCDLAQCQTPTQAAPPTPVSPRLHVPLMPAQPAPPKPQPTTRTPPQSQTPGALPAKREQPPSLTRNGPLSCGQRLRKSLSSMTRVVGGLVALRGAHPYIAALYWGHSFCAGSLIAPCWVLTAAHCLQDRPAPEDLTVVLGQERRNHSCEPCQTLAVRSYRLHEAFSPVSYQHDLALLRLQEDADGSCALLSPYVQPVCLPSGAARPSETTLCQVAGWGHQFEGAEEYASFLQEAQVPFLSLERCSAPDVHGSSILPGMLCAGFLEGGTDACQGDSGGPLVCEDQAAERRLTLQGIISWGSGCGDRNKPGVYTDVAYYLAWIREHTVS

Protein skinhead-1 = biological target: T4, Protein skinhead-1 (Caenorhabditis elegans, UniProt P34707); type: functional
T4 sequence (P34707 whole entry): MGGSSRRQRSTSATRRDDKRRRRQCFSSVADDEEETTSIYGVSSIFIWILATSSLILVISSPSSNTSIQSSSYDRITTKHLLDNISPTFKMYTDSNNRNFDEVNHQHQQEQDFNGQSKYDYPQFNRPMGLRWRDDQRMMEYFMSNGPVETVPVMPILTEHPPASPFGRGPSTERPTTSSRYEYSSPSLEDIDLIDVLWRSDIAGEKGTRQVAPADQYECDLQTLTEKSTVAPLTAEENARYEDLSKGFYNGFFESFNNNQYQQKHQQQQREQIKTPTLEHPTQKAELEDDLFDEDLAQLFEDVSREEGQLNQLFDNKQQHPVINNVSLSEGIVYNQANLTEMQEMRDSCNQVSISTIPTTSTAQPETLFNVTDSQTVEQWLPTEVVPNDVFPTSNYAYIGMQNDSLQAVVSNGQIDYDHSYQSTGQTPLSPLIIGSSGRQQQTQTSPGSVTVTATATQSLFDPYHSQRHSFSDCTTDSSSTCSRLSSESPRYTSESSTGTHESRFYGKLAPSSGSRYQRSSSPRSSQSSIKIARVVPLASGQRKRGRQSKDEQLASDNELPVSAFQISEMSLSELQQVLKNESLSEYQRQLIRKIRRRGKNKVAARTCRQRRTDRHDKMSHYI

Caspase-3 = biological target: T5, Caspase-3 (Homo sapiens, UniProt P42574); assay: activators of human procaspase-3 D3A mutant – biochemical, absorbance, PC-3 D3A mutant, counter-screen for dual procaspase-3/7 activator project, dose response (AID 504328)
T5 sequence (P42574 whole entry): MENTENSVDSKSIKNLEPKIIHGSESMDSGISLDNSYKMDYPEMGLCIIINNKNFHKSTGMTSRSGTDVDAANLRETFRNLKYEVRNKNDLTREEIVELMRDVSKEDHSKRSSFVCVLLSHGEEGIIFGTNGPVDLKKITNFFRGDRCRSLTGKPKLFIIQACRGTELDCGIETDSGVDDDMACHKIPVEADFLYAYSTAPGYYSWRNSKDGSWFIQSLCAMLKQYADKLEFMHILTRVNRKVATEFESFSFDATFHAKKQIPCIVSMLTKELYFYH

Caspase-7 = Caspase-7 (Homo sapiens, UniProt P55210); assay: potency of procaspase-7 enzyme activation – biochemical, absorbance, human, dual procaspase-3/-7 activator project, dose response (AID 504330)
[4] = microbe, parasite or virus in culture; type: functional; conditions: Mycobacterium tuberculosis
[5] = biological target: T6, Calpain-2 catalytic subunit (Sus scrofa, UniProt P43367); assay: m-calpain protease blockers, concentration series – biochemical, fluorogenic peptide substrate, dose response (AID 1420); type: functional
T6 sequence (P43367 whole entry): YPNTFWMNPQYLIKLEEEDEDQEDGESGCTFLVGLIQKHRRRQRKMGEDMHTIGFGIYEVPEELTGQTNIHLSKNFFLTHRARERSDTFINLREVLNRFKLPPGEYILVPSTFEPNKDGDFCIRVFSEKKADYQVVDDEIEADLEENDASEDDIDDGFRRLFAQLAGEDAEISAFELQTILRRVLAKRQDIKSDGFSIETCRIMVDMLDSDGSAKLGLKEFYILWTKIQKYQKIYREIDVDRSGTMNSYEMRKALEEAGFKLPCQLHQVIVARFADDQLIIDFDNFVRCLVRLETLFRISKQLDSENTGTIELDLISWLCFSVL

[6] = THP-1 cell cytotoxicity, dose response, cytotoxicity control for non-replicating M. tuberculosis project (AID 489025); type: functional
[7] = Luminescence Cell-Based Dose Retest to Confirm Inhibitors of Cancer Stem Cells. [Related pubchem assays (depositor defined):AID2717, AID2721]; type: functional; conditions: Homo sapiens
[8] = HepG2 cell cytotoxicity, dose response, cytotoxicity control for non-replicating M. tuberculosis project (AID 489018); type: functional; conditions: Mycobacterium tuberculosis
[9] = Vero E6 cell cytotoxicity, dose response, cytotoxicity control for non-replicating M. tuberculosis project, secondary assay (AID 492998); type: functional, VeroE6; conditions: Vero C1008
[10] = biological target: Neurotensin receptor type 1 (Homo sapiens, UniProt P30989); type: functional;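 further: Image-based confirmatory dose-response assay measuring agonist activity at NTR1; NTR1-expressing U2OS osteosarcoma cells imaged for beta-arrestin GFP spot formation; agonist potency where compounds increase beta-arrestin recruitment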
Sequence of Neurotensin receptor type 1 (P30989 whole entry): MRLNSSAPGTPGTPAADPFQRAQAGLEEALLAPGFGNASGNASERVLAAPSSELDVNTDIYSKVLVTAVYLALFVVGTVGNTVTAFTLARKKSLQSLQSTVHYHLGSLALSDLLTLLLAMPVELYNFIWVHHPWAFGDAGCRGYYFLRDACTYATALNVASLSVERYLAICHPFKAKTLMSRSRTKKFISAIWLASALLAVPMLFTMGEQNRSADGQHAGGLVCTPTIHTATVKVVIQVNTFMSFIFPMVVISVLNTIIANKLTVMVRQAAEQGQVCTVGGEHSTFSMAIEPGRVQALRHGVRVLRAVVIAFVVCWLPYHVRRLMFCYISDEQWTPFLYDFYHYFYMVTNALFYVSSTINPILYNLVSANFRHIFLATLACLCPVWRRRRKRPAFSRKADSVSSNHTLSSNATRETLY

[11] = biological target: T7, Microphthalmia-associated transcription factor (Homo sapiens, UniProt O75030); assay: reducers of TRPM1 reporter luminescence, concentration series – cell-based, SK-MEL-5, cherry-picked, set 3, MITF inhibitor project, dose response (AID 493073); type: functional;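 further: SK-MEL-5 melanoma cells with luciferase driven by the MITF target TRPM1 promoter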
T7 sequence (O75030 whole entry): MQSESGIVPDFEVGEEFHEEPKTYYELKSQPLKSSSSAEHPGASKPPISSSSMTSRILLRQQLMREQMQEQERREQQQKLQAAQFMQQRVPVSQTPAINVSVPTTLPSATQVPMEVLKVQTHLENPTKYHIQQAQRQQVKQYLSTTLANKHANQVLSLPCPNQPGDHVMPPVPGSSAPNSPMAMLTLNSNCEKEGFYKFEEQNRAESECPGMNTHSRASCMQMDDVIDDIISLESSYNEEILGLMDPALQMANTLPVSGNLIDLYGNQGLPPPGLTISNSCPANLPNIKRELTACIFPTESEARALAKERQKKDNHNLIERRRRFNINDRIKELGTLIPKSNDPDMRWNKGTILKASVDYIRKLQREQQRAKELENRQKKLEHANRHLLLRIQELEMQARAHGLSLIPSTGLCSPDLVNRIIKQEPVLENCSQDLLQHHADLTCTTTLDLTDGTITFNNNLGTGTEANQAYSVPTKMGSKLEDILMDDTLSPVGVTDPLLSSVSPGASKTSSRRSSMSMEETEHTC

cells = type: functional
A-375 = assay: proliferation inhibition in MITF-low A375 cells – cell-based, cherry-pick samples, set 2, counter-screen for MITF modulator project, dose response (AID 540335); type: functional; conditions: Homo sapiens
Paired box protein Pax-8 = Paired box protein Pax-8 (Homo sapiens, UniProt Q06710); assay: PAX8 transcriptional activity inhibition in RMG-I – RMG-I cells, luciferase, cherry-pick, dose response (AID 687027); type: functional, cell-based;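 further: luciferase reporter driven by Pax8 target thyroperoxidase promoter measured by SteadyGlo luminescence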
Sequence of Paired box protein Pax-8 (Q06710 whole entry): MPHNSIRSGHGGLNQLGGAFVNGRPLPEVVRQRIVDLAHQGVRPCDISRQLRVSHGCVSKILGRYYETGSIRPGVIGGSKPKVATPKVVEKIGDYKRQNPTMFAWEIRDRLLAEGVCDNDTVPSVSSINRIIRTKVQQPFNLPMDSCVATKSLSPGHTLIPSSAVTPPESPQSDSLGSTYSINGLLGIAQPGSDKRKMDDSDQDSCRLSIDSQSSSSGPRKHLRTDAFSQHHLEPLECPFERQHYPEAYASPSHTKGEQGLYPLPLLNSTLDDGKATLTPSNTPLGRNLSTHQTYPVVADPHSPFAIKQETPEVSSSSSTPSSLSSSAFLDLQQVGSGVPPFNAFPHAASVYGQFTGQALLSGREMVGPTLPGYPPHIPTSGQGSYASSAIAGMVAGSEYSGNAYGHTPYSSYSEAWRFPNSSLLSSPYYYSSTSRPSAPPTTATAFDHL

[12] = potency of ADAM10 substrate cleavage blockers – biochemical, QFRET, dose response (AID 743254);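 further: ADAM10 enzyme with the DM2 quenched FRET peptide as substrate; EDANS fluorescence gain as the protease cuts the substrate; inhibitor potency against ADAM10 proteolytic activity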
[13] = A549 cell cytotoxicity, dose response, cytotoxicity control, plate reader, cherry-pick, antagonist series (AID 743412); type: functional, cell-based
[14] = toxicity toward HepG2 liver cells – cell-based, plate reader, cherry-pick, antagonist series, cytotoxicity control, dose response (AID 743416); type: functional
[15] = blockers of bursicon-stimulated LGR2 cAMP reporter – cell-based, HEK293, CRE-luciferase reporter, cherry pick, set 2, dose response (AID 743343); type: functional;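 further: transfected cells were stimulated with diluted bursicon conditioned medium after compound addition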
[16] = general cell-killing toxicity readout – plate reader, dry powder samples, cytotoxicity control for PAX8 inhibitor project, dose response (AID 743021); type: functional, cell-based
[17] = blockade of melanocortin 4 receptor signaling – cell-based, plate reader, cherry pick, counter-screen for LGR2 antagonist project, dose response (AID 743444); type: functional;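 further: transfected HEK 293 cells stimulated with alpha-MSH peptide; potency of inhibitors of the alpha-MSH evoked signal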
[18] = biological target: Disintegrin and metalloproteinase domain-containing protein 17 (Homo sapiens, UniProt P78536); assay: inhibition of ADAM17 substrate cleavage – biochemical, quenched FRET substrate, counter-screen for ADAM10 exosite inhibitor project, dose response (AID 743253)
Sequence of Disintegrin and metalloproteinase domain-containing protein 17 (P78536 whole entry, the tested form may be a part): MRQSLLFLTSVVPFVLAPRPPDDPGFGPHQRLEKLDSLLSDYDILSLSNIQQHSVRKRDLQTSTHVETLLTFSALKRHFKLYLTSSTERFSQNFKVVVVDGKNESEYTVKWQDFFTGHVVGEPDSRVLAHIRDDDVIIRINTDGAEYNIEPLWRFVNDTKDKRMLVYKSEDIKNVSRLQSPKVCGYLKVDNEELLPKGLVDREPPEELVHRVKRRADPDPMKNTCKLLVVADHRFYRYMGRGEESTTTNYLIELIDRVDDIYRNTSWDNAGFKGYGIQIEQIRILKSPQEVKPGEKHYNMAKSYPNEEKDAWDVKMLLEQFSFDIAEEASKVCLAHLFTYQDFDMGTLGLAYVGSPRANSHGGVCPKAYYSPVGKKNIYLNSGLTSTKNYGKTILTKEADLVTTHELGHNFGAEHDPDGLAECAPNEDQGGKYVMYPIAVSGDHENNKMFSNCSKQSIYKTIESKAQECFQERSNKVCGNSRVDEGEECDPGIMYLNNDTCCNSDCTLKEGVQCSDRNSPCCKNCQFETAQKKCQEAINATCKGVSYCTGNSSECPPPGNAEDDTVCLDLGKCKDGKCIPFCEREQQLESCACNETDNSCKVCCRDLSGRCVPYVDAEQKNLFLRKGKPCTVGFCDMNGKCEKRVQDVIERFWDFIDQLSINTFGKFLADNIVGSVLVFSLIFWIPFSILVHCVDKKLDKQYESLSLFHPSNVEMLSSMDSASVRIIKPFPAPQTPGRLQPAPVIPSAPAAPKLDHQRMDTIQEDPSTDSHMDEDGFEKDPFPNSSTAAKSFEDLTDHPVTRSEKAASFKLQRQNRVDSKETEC

[19] = viability loss in HEK293 cells – cell-based, plate reader, cherry-picked samples, cytotoxicity control, dose response (AID 743446); type: functional

In the case of COc1ccc(C(=O)Nc2nc(-c3cccs3)cs2)cc1, the IC50 (Prothrombin) is reported as 1.14 µM (active), the EC50 [1] is reported as 1.08 µM (active) and the EC50 [2] is reported as 5.31 µM (active). For the same compound, the EC50 [3] was 1.1 µM (active), the IC50 (Coagulation factor XII) was > 50 µM (inactive) and the IC50 (Protein skinhead-1) was 57.1 µM (inactive).
With CCOC(=O)/C(C#N)=C/Nc1cc(OC)ccc1OC the EC50 (Caspase-3) was > 85.3 µM (inactive) and the EC50 (Caspase-7) was > 85.3 µM (inactive).
With OC(CNCC(c1ccc(Cl)cc1Cl)c1c[nH]c2ccccc12)c1ccccc1 (configuration not stated) the CC50 [4] was 6.04 µM (active), the IC50 [5] was 11.4 µM (not active) and the CC50 [6] was 6.38 µM (active). The AC50 [7] was 2.12 µM (active), the CC50 [8] was 7.75 µM (active) and the CC50 [9] was 6.27 µM (active). For the same compound, the EC50 [10] was 15.2 µM (active), the AC50 [11] was 14.7 µM (active) and the IC50 (cells) was 12.3 µM (active). The AC50 (A-375) was 14.8 µM (active), the AC50 (Paired box protein Pax-8) was 11.2 µM (active) and the IC50 [12] was 13.4 µM (inactive). The AC50 [13] was 8.71 µM (active), the AC50 [14] was 8.61 µM (active) and the AC50 [15] was 19.2 µM (active). The AC50 [16] was 38.2 µM (active), the AC50 [17] was 21.1 µM (active) and the IC50 [18] was > 69.5 µM (inactive). For the same compound, the AC50 [19] was 14.2 µM (active).
